Assay results as given in patent US20170071976A1, “PHARMACEUTICAL SOLUTION HAVING ANTI-TUMOR EFFECT-ENHANCING AND TOXICITY-REDUCING EFFECT, AND PHARMACEUTICAL COMPOSITION COMPRISING SAME” (priority 2014, published 2017).
Where two headings read alike, the source gives them in different places. Marks after values point to notes of the source that are not given here.

Legend:
[1] = tested on: superficial bladder cancer (SBC); conditions: mitomycin dissolved in only a sodium chloride solution, intrabladder perfusion and lavage; cited from earlier work
[2] = tested on: human lung cancer A549 cells; assay: Cell invasion assayed by Transwell; type: cell-based; conditions: invaded A549 cells, control 178.3 ± 13.8
Method: Cell lines: human colon cancer HCT-116 cells and human lung cancer A549 cells were provided by NANJING […] BIOTECH. CO., LTD. […] The cell suspension was centrifuged at 800 to 1,000 rpm for 5 min, and the supernatant was discarded; 1.4. A complete culture medium was added to the cell pellet which was well mixed by gentle pipetting, the cell suspension was transferred to a culture flask, and the cells were cultured by supplementing culture medium. 1. […] After incubation of cells with the test drugs for 24 hours, serum was removed, and the cells were incubated under starvation with an incomplete culture medium for 24 hours; 3. Matrigel was placed at 4° C. in advance to thaw overnight; 4. Thawed Matrigel was 1:1 diluted with the incomplete culture medium, 30 μl diluted Matrigel was added to the upper compartment of Transwell and incubated at 37° C. for 120 min to gel the Matrigel; 5. Cells from different groups were digested, counted, and then adjusted to a density of 1×10^5 cells/ml with the incomplete culture medium, 100 μl cell suspension was added to the upper compartment (small compartment) of Transwell, and 500 μl medium containing 20% FBS was added to the lower compartment of Transwell; 6. A 24-well cell culture plate was placed in an incubator at 37° C. and 5% CO2 to culture the cells for 24 hours; 7. […] The assay was repeated one more time.

[3] = tested on: human pancreatic cancer PANC-1 cells inoculated into the peritoneal cavity; assay: Survival of nude mice bearing PANC-1 cells, 42° C. intraperitoneal retention lavage with HP-β-CD or sodium chloride deuterium oxide solution and gemcitabine; type: in vivo; conditions: 42° C. NS 10 ml/kg + gemcitabine 20 mg/kg, i.p. lavage x 5
Method: Effect of 42° C. hyperthermicintraperitoneal retention lavage with hydroxypropyl-β-cyclodextrin (HP-β-CD) deuterium oxide solution in combination with gemcitabine (GEM) on the survival of nude mice bearing human pancreatic cancer PANC-1 cell.
Animal: 4 to 5 week-aged male nude mice, provided by Shanghai SIPPR-BK Laboratory Animal Co. Ltd.
Cell lines: human pancreatic cancer PANC-1 cell line was provided by NANJING KEYGEN BIOTECH.
Modeling: 0.2 ml suspension of pancreatic cancer PANC-1 cells containing 1×10^7 cells/ml (2×10^6 cells in total) was inoculated into the peritoneal cavity of the nude mice.
Grouping and dosing: the mouse model was established 7 to 8 days after inoculation into the nude mice, and the mice were randomized with 18 animals/group.
Gemcitabine was separately dissolved in the HP-β-CD deuterium oxide solution at 42° C., and in the sodium chloride deuterium oxide solution at 42° C., for intraperitoneal lavage of tumor-bearing mice.
Blank control group (42° C. sodium chloride physiological solution, 10 ml/kg); 2). Normal chemo group (42° C. sodium chloride physiological solution, 10 ml/kg+gemcitabine 20 mg/kg); 3). Low-dose sodium chloride deuterium oxide solution+gemcitabine group (42° C. sodium chloride deuterium oxide solution, 5 ml/kg+gemcitabine 20 mg/kg); 4). […]

[4] = tested on: xenograft tumors from human breast cancer MCF-7 cells; assay: MCF-7 xenograft in nude mice, intravenous deuterium oxide in combination with gemcitabine; type: in vivo, BALB/c nude mice; conditions: for Body weight (g) End, given as change / Body weight (g) Initial / Bone marrow DNA content (OD): mouse, in vivo; for Inhibition (%): tumor weight
Method: Ltd. Cell lines: human breast cancer MCF-7 cells were provided by NANJING […] BIOTECH. CO., LTD. […] Bone marrow nucleated cells were isolated by a routine method, DNA was extracted from the cells, the OD value was measured in a UV-260 spectrometer as a representative of the DNA content, and inhibition of DNA synthesis by the test samples was observed. The test used 7 groups in total, with 8 animals per group. […] Statistics: the same as Example 21.

[5] = tested on: xenograft tumors from human lung cancer A549 cells; conditions: mouse, in vivo
Method: (§1) Animal: 6 to 7 week-aged female BALB/c nude mice, each weighing 18 to 20 g, provided by Shanghai SLAC Laboratory Animal Co. Ltd.
(§2) Test drugs: gemcitabine (GEM) and the sodium chloride deuterium oxide solution prepared in Example 1.
(§3) Tumor cells were resuscitated and inoculated, and sterile sodium chloride physiological solution was added thereto to make a cell suspension which was subcutaneously inoculated into the upper right axillary fossa of animals. 5×10^6 tumor cells were inoculated into each animal.
(§4) The diameter of xenograft tumors in the nude mice was measured with a vernier caliper, and 10 days after inoculation, when tumors grew to 100 to 110 cm^3, the animals were randomized with 8 mice per group. Meanwhile drugs were administered by injection into tail vein, once every three days, for 21 successive days. By measuring the tumor diameter, the anti-tumor efficacy of test samples was dynamically observed. Meanwhile the body weight of animals was also recorded to observe the toxicity of the test samples. 21 days after administration, the nude mice were sacrificed, and tumors were harvested by surgery, weighed and photographed.
(§5) 6) Test group 2: gemcitabine (10 mg/kg) diluted in the sodium chloride deuterium oxide solution (10 ml/kg). 7) Test group 3: gemcitabine (10 ml/kg) diluted in the sodium chloride deuterium oxide solution (20 ml/kg).

[6] = tested on: human lung cancer A549 cells; assay: Cell cycle by PI single staining (flow cytometry); type: cell-based; conditions: GM 250 nM in NS, 72 hours
Method: Effect of deuterium oxide on the cell cycle of human lung cancer A549 cells and human colon cancer HCT-116 cells Human lung cancer A549 cells and human colon cancer HCT-116 cells were provided by NANJING […] BIOTECH. CO., LTD., and cultured in an incubator at 37° C., 5% CO2 and saturated humidity. A KGA511 Cell cycle assay kit was provided by NANJING […] BIOTECH. CO., LTD. The flow cytometer was FACS Calibur provided by Becton-Dickinson, US. […] The cell suspension was centrifuged at 800 to 1,000 rpm for 5 min, and the supernatant was discarded; 1.4. A complete culture medium was added to the cell pellet which was well mixed by gentle pipetting, the cell suspension was transferred to a culture flask, and the cells were cultured by supplementing culture medium. […] When all the cells became round, an equal volume of culture medium containing serum was added to cease the digestion; 2.4. The cells were blown by pipetting to suspend, then drawn into a 15 ml centrifugal tube, and centrifuged at 1000 rpm for 5 min; 2.5. […] 1. Cells growing in the exponential phase were digested and inoculated to a 6-well plate; on the next day, after the cells attached to the wall, cell culture media containing corresponding test drugs were added according to different groups, and a negative control group was also set; 2. […] The cells were washed with PBS once (centrifuged at 2,000 rpm for 5 min), and 5×10^5 cells were collected; 4. […] In a detection apparatus, red fluorescence with an excitation wavelength of 488 nm was recorded.

[7] = tested on: xenograft tumors from human lung cancer A549 cells; assay: A549 xenograft in nude mice, intravenous deuterium oxide in combination with gemcitabine; conditions: for Inhibition (%): tumor weight
Method: as §1, §2, §3, §4, §5

[8] = GEM(H) 20 mg/kg × 11, tail vein
[9] = GEM(L) 10 mg/kg × 11, tail vein, 10 mg/kg
[10] = GEM(L) 10 mg/kg × 11, tail vein, listed as gemcitabine, 10 mg/kg
[11] = GEM(H) 20 mg/kg × 11, tail vein, 20 mg/kg
[12] = GEM(H) 20 mg/kg × 11, tail vein, listed as gemcitabine, 20 mg/kg

**Q.** Which tumor recurrence rate [1] does the source give for `CO[C@@]12[C@H](COC(N)=O)C3=C(C(=O)C(C)=C(N)C3=O)N1C[C@@H]1N[C@@H]12` [mitomycin] here?
**A.** 78%

**Q.** For `Nc1ccn([C@@H]2O[C@H](CO)[C@@H](O)C2(F)F)c(=O)n1` [Gemcitabine, gemcitabine], which Number of cells ([2]; GEM 1.95 nM) is on record?
**A.** 160.0 ± 6.6

**Q.** And the Number of cells ([2]; GEM 3.9 nM)?
**A.** 112.7 ± 3.5

**Q.** And the Number of cells ([2]; GEM 7.8 nM)?
**A.** 59.0 ± 2.0

**Q.** What about the Number of cells ([2]; GEM 15.6 nM) of the same compound?
**A.** 51.7 ± 3.1

**Q.** What about the Number of cells ([2]; GEM 31.2 nM) of the same compound?
**A.** 37.3 ± 2.3

**Q.** And the Number of cells ([2]; GEM 62.5 nM)?
**A.** 22.3 ± 0.6

**Q.** What about the Number of cells ([2]; GEM 125 nM) of the same compound?
**A.** 16.0 ± 1.0

**Q.** And the Number of cells ([2]; GEM 250 nM)?
**A.** 9.7 ± 2.1

**Q.** What about the “T/C(%)” value [3] of the same compound?
**A.** 150.8%

**Q.** And the “MST” value ([3]; control 11.8 ± 2.2)?
**A.** 17.8 ± 1.8 days

**Q.** And the tumor volume ([4]; 21 days after administration, gemcitabine 10 mg/kg alone)?
**A.** 2.757±0.342 cm^3

**Q.** And the “Tumor weight” value [4, 8]?
**A.** 1.57 ± 0.21 g

**Q.** And the “Tumor weight” value ([4]; GEM(L) 10 mg/kg × 11, tail vein)?
**A.** 2.48 ± 0.41 g

**Q.** What about the “T/C (relative tumor growth ratio)” value ([4]; gemcitabine 10 mg/kg alone, vs negative control) of the same compound?
**A.** 60.39%

**Q.** And the “Body weight (g) End, given as change” value ([4]; 10 mg/kg)?
**A.** +2.9 g

**Q.** What about the “Body weight (g) Initial” value ([4]; 10 mg/kg) of the same compound?
**A.** 18.0 g

**Q.** And the “Bone marrow DNA content (OD)” value ([4]; 10 mg/kg)?
**A.** 0.908 ± 0.2543 OD

**Q.** And the “Body weight (g) End, given as change” value ([4]; 20 mg/kg)?
**A.** +0.9 g

**Q.** And the “Body weight (g) Initial” value ([4]; 20 mg/kg)?
**A.** 18.1 g

**Q.** And the “Bone marrow DNA content (OD)” value ([4]; 20 mg/kg)?
**A.** 0.823 ± 0.1416 OD

**Q.** And the “Inhibition (%)” value [4, 8]?
**A.** 61.42%*

**Q.** And the “Inhibition (%)” value [4, 9]?
**A.** 39.06%

**Q.** And the “Inhibition (%)” value [4, 10]?
**A.** 39.18%

**Q.** And the “Body weight (g) End, given as change” value ([5]; 10 mg/kg)?
**A.** +0.4 g

**Q.** What about the “Body weight (g) Initial” value ([5]; 10 mg/kg) of the same compound?
**A.** 18.0 g

**Q.** What about the “Body weight (g) End, given as change” value ([5]; 20 mg/kg) of the same compound?
**A.** +0.5 g

**Q.** And the “Body weight (g) Initial” value ([5]; 20 mg/kg)?
**A.** 18.4 g

**Q.** What about the “G1 Phase” value [6] of the same compound?
**A.** 73.73 ± 3.73%

**Q.** And the “G2 Phase” value [6]?
**A.** 10.71 ± 2.39%

**Q.** What about the “S Phase” value [6] of the same compound?
**A.** 15.55 ± 5.51%

**Q.** What about the “Tumor weight” value [7, 11] of the same compound?
**A.** 1.04 ± 0.13 g

**Q.** And the “Tumor weight” value [7, 12]?
**A.** 1.04 ± 0.13 g

**Q.** What about the “Tumor weight” value [7, 9] of the same compound?
**A.** 2.23 ± 0.2 g

**Q.** And the “Tumor weight” value [7, 10]?
**A.** 2.23 ± 0.2 g

**Q.** What about the “Inhibition (%)” value [7, 11] of the same compound?
**A.** 64.54* %

**Q.** And the “Inhibition (%)” value [7, 12]?
**A.** 64.54%

**Q.** And the “Inhibition (%)” value [7, 9]?
**A.** 23.64%

**Q.** What about the “Inhibition (%)” value [7, 10] of the same compound?
**A.** 23.6%
